Our source for the melting point values is a melting point compilation (Tetko et al.; mined from patent text by program, amines drawn as free bases though some values may be those of a salt).

Structures are written as SMILES.

One may read the melting point as the temperature of the solid-liquid transition. `O=C(Nc1cccc2cc(COc3ccccc3)cnc12)c1c(Cl)cccc1Cl` registered a melting point of 157 °C.
Take `COc1cc(Cc2cnc(N)nc2N)cc2c1OC(C)(C)C=C2c1cccs1`: the melting point was greater than 260 °C.
The result for `O=C1CC(c2ccc(O)cc2)=Nc2ccc(N3CCCC3)cc21` reads 304 to 306 °C; that for `Clc1cccc(/C=C/C2=CCN(Cc3c[nH]c4ncccc34)CC2)c1`, 208 to 210 °C; that for `CS(=O)c1ccc(OCc2ccccc2)c(C=O)c1` (stereo not given), 103 to 104 °C.
On to `O=C(O)C(C(=O)O)C1c2ccccc2CCc2ccccc21`, for which the melting point was determined as 183 °C.
`O=C1CCN(CC(c2ccccc2)c2ccccc2)CC1C1(O)CCN(CC(c2ccccc2)c2ccccc2)CC1` (stereo not given) yielded a melting point of 125 to 127 °C.
As for `Cc1ccc(S(=O)(=O)NC(=O)Nc2c(Br)cc(Br)cc2Br)cc1`, the melting point was found to be 230 °C.
Take `O=CCCCCCN1C(=O)c2ccccc2C1=O`: the melting point fell in the range of 69 to 71 °C.
`O=C(O)CCCCC(O)CCCl` (single isomer, unassigned; (-)) gave a melting point of 29 to 30 °C.
As for `CON(C)C(=O)c1cc(-n2c(=O)cc(C(F)(F)F)[nH]c2=O)c(F)cc1Cl`, the melting point was greater than 220 °C.
The result for `CC(C)(S)CNC(=O)CCCC(=O)O` reads 101 to 104 °C; that for `CCCCOc1cc2cc(CO)c(CO)c(-c3ccnc(Cl)c3)c2cc1OC`, 93 to 97 °C.
As to `O=[N+]([O-])c1ccc([N+](=O)[O-])c(OCC=CCBr)c1`, the melting point was in the range of 81 to 83 °C.
The result for `O=C(c1ccncc1)N1CCN(Cc2ccc3c(c2)-c2[nH]nc(-c4ccsc4)c2C3)CC1` reads 168 to 170 °C; that for `Clc1cnc2[nH]c3ccc(CCc4ccccc4)cc3c2c1`, 216 to 220 °C; that for `Cc1nc2ccc(CN(CCO)c3ccc(C(=O)NCc4cccc([N+](=O)[O-])c4)cc3)cc2c(=O)[nH]1`, 230 to 232 °C.
The same measure for `CCOC(=O)N1CCC(Nc2nc3cncnc3n2C2CC2)CC1`: 177 °C; for `NC(=O)CNC(=O)c1ccc(-c2cccc3cc(Cc4cccc(C(F)(F)F)c4)sc23)cc1`: 134 to 136 °C; for `COC(=O)C(Cc1c[nH]c2ccccc12)NC(=O)c1ccc2c(c1)OCO2` (stereo not given): 123 to 124 °C.
The result for `Clc1ccc(-c2onc3c(CBr)cccc23)cc1` reads 153 to 155 °C; that for `O=C(O)Cc1ccc(CNC(=O)C2Cc3ccccc3N2S(=O)(=O)c2ccc(-c3cccc(C(F)(F)F)c3)cc2)cc1` (stereo not given), 90 °C; that for `CC(C)n1c(CC[C@@H](O)C[C@@H](O)CC(=O)O)c(-c2ccc(F)cc2)c(-c2ccc(F)cc2)c1C(=O)NCc1ccc(C(=O)O)cc1`, 140 to 142 °C.
Turning to `CNC(=O)c1oc(C(C)(C)C)cc1NC(=O)Nc1ccc(C)cc1`, the melting point fell in the range of 190 to 193 °C.
The result for `CC1CCCC1(Oc1ccc(CC(=O)c2ccc3c(c2)CCC3)cc1)C(=O)O` (stereo not given) reads 191 to 193 °C.
The same measure for `COC(=O)c1cccc2nc(SCCN3CCN(CC(=O)Nc4c(SC(C)C)cc(C)nc4SC(C)C)CC3)oc12`: 60 to 63 °C; for `CN(c1cccc2cc(-c3nc(CCC(N)=O)cs3)[nH]c12)S(=O)(=O)c1cccs1`: 200 to 201 °C.
In the case of `CC12CC3(C)CC(c4ccc(C(=O)O)cc4)(C1)CC(c1ccc(C(=O)O)cc1)(C2)C3`, the melting point was in the range of 252 to 255 °C.
The result for `O=C=Nc1c(Cl)cc(Cl)cc1Cl` reads 65 to 66 °C.
As for `Cc1nc2cc(C(F)(F)F)c(Cl)c(N)c2n1N(C)C`, the melting point lay within 173 to 174 °C.
Take `O=[N+]([O-])c1cccc(Cc2nnn[nH]2)c1`: the melting point was found to be 140 °C.
The same measure for `COC(=O)C(=O)C1C(=O)C(=O)C(CCCCCCC(=O)O)C1=O` (stereo not given): 127 to 129 °C; for `C=CCOc1cccc(C[C@H](NC(=O)OC(C)(C)C)C(=O)OC)c1`: 50 to 51 °C; for `CC1(COc2ccc(OCCN3CC(COc4ccccc4)OC3=O)cc2)OCCO1` (stereo not given): 75 to 77 °C.
The result for `CCCCCCc1c(Cl)nc(N=CN(C)C)nc1Cl` reads 59 to 60 °C; that for `O=C(O)/C=C/c1ccc(OCCC2OCCO2)cc1Oc1ncc(C(F)(F)F)cc1Cl`, 157 to 158 °C.
As for `COC(=O)c1ccc2c(-c3cccc(OC)c3)nc(=O)n(C(C)C)c2c1`, the melting point was in the range of 164 to 167 °C.
The same measure for `C=Cc1ccc(C(=O)Oc2ccc(NS(C)(=O)=O)cc2)cc1`: 172 to 173 °C.
The result for `O=C1c2ccccc2C(=O)c2c1cccc2N1CCN(CCO)CC1` reads 140 °C.
`CC(C)(C)c1ccc(C2(N=C=O)CCC3(CC2)OCCO3)cc1` displayed a melting point of 103 to 106 °C.
For the molecule `COC(=O)c1ccc(Cl)cc1NC(=O)CSc1ccc(NC(=O)Cc2ccccc2)cc1`, the melting point lay within 144 to 146 °C.
The same measure for `CSCc1cc(N)ccc1O`: 166 °C.
The same measure for `CCC(CC)N(O)C(=O)Nc1ccc(Cc2ccc(NC(=O)N(O)C(CC)CC)c(Cl)c2)cc1Cl`: 172 to 173 °C; for `COc1ccc(/C=C/C(=O)/C=C/C(=O)O)c(OC)c1OC`: 125 to 127 °C.
The result for `CCO[C@@H]1[C@@H](OC)[C@H](C)O[C@@H](OC(=O)N(C(C)=O)c2ccc(-c3ncn(-c4ccc(OC(F)(F)C(F)(F)F)cc4)n3)cc2)[C@@H]1OC` reads 70 to 72 °C; that for `O=C(O)CNc1ccc2ccccc2c1`, 219 to 221 °C; that for `CCOc1ccc(N2CCN(c3c(C)c4c(c(OCC)c3C)OC(C)C4)CC2)cc1` (stereo not given), 121 to 122 °C.
As to `CC1(C)C=Cc2cc(C#N)c([N+](=O)[O-])cc2O1`, the melting point was 154 to 155 °C.
`CCC(C)N(C)C(=O)c1cc(-c2ccccc2)c2ccsc2c1` (stereo not given) gave a melting point of 84 °C.
For the molecule `O=C(Nc1c[nH]nc1C(=O)NCCCc1ccccc1)c1ccccn1`, the melting point is 179 to 180 °C.
`CCN(CC)CCN(CC)C(=O)c1ccccc1Nc1ccnc2c(C(F)(F)F)cccc12`: the melting point fell in the range of 112 to 113 °C.
For the molecule `CC(C)(C)c1ccc(C2OCC(CO)([N+](=O)[O-])CO2)cc1` (stereo not given), the melting point is 90 to 92 °C.
The same measure for `CC(C)(C)OC(=O)N=C(NC(=O)OC(C)(C)C)Nc1ccc2c(c1)Cc1cc(NC(=NC(=O)OC(C)(C)C)NC(=O)OC(C)(C)C)ccc1-2`: greater than 340 °C; for `Cc1cc(C(=O)O)cc2c3ccccc3n(Cc3ccccc3)c12`: greater than 240 °C.
Take `CN(C)Cc1ccc(CSCCNC(=C[N+](=O)[O-])NCCCN(C)CCN(Cc2ccc(F)cc2)c2ccccn2)o1`: the melting point is 63 °C.
The same measure for `O=C(NO)[C@H](CNS(=O)(=O)c1ccc(OCc2c(C(F)(F)F)nn3ccccc23)cc1)N1CCN(Cc2ccccc2)CC1`: 138 °C; for `CCCc1nc2c(N)nc(C)c(C)c2n1CCCCS(=O)(=O)N(C)C`: 127 to 128 °C; for `CCn1c(=O)c(Oc2ccc(F)cc2F)cc2cnc(S(C)(=O)=O)nc21`: 128 to 129 °C.
The same measure for `CCCCCCCCCCCCCc1nnc(N)o1`: 147 to 150 °C.
`O=C1C2CC(c3ccc([N+](=O)[O-])cc3)(C2)C(=O)N1C1CCCCC1`: the melting point fell in the range of 163 to 164 °C.
The same measure for `O=C(NCCC12CCC(=O)N1C(=O)CC2)OCc1ccccc1`: 118 to 120 °C; for `Cc1cccc(-c2n[nH]cc2-c2ccnc(-c3ccc(C(=O)NC4CCOCC4)cc3)c2)n1`: 148 °C; for `COC(=O)CC(C#Cc1ccc(C(=O)O)cc1)c1ccc(OC)c(OC2CCCC2)c1` (racemic): 109 to 110 °C.
`CCCc1nc2c(N)nc3cc(OCCN4CCCS4(=O)=O)ccc3c2s1` registered a melting point of 127 to 130 °C.
For the molecule `CC(C)(C)ON=C1CC(=NOC(C)(C)C)c2ccccc2-c2ccccc21`, the melting point is 181 to 183 °C.
As to `CNc1nsnc1-c1c(Cl)cccc1Cl`, the melting point is 145 to 146 °C.
The same measure for `Cn1cc(C(=O)OCC23CCCN(CC2)C3)c2ccccc21` (stereo not given): 94.5 to 96.5 °C; for `COC(=O)/C=C/c1nc2ccc(Cl)cc2c(=O)o1`: 117 to 118 °C; for `COc1ccc(S(=O)(=O)Nc2ccccc2Nc2cccc(O)c2)cc1`: 165 to 166 °C.
The same measure for `Cc1cc(C)c2c(c1O)C(N)C(C1CCCCC1)C2` (stereo not given): 125 to 126 °C; for `COC(=O)c1c(Cc2ccc(C(=O)CO)cc2)c(=O)c2ccc(C)nc2n1-c1ccccc1`: 190 to 193 °C.
The result for `CC1(C)Cc2ccccc2CC(C)(C)C1O` reads 66 to 68 °C; that for `C=CC1(O)CCC2C3CCC4=CC(=O)CCC4C3CCC21CC` (stereo not given), 108 to 111 °C.
`O=C(Nc1ccccc1)c1ccc2c(c1)S(=O)(=O)NCN2C1CC1` displayed a melting point of 268 to 270 °C.
`O=C(N[C@@H]1CN2C(=O)N(c3cc(Cl)nc(Cl)c3)C(=O)[C@@]2(Cc2ccc(OC(F)(F)F)cc2)C1)c1ccncc1` came in with a melting point of 148 °C.
Take `Cc1cc(C)n(-c2nc(Nc3ccc(I)cc3)c3ccccc3n2)n1`: the melting point lay within 226 to 229 °C.
The molecule `CCCNC(=O)C1(CCCCSc2ccccc2)c2ccccc2-c2ccccc21` gave a melting point of 50 to 53 °C.
`Cc1cn(C2OC(COC(=O)c3ccccc3)C(OC(=O)c3ccccc3)C2OC(=O)c2ccccc2)c(=O)[nH]c1=O` (stereo not given) displayed a melting point of 90 °C.
In the case of `O=C(CC1c2ccc(-c3ccccc3)cc2S(=O)(=O)N1c1ccccc1)NO` (stereo not given), the melting point lay in the range of 191 to 193 °C.
The result for `CCCCOC(=O)c1ccccc1OC(=O)N(C)SN(C)C(=O)ON=C(C)SC` reads 68 to 74 °C.
The same measure for `COC(=O)C1CCCN1S(N)(=O)=O` (stereo not given): 166 to 168 °C.
For the molecule `O=C(CN1CC=CCC1)NC(=O)N1CCN2C(=O)OC(c3ccccc3)(c3ccccc3)C2C1` (stereo not given), the melting point fell in the range of 156 to 157 °C.
With `CCN(CC)CCOC(=O)c1ccc2nc3n(c(=O)c2c1)C(C)CC3=Cc1ccccc1` (stereo not given), the melting point fell in the range of 125 to 130 °C.
The same measure for `CC(N)CC(=O)Nc1ccc(Nc2ccccc2)cc1` (stereo not given): 130 to 132 °C.
With `Nc1nc2ccccc2c2c1ncn2CCCCCS(=O)(=O)c1ccccc1`, the melting point fell in the range of 171 to 172 °C.
